PubChem BioAssay (NCI)
Where “and” joins values, the source holds several entries; their conditions need not be identical. Identical values can stand only once.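 1) Cells in 96-well plates. 2) Compound, 48 h, 5 concentrations. 3) Linear interpolation between surrounding doses. 4) Unreached endpoint = highest concentration. GI50 marks 50% less growth. TGI marks complete inhibition of growth.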 Where a SMILES comes first, the peptide text is derived from it. [ ]: non-standard residue; d: D form. The star is where a group is joined. ξ: configuration not given here. dIva = CC[C@@](C)(N)C(=O)O; Aib = CC(C)(N)C(=O)O; ξP = O=C(O)C1CCCN1; βAla = NCCC(=O)O; X5 = OCN*

Key:
Test in all cases: growth of human tumour cells (NCI), 48 h
[1] = test system: DMS 114 small cell lung
[2] = test system: RXF-631 renal
[3] = test system: DLD-1 colon
[4] = test system: KM20L2 colon
[5] = test system: MCF7 breast
[6] = test system: BT-549 breast
[7] = test system: MDA-N
[8] = test system: MDA-MB-231 breast
[9] = test system: DMS 273 small cell lung

Structure (SMILES)	TGI [1] [µM]	TGI [2] [µM]	TGI [3] [µM]	TGI [4] [µM]	TGI [5]	TGI [6]	TGI [7]	TGI [8]	GI50 [5]	GI50 [6]	GI50 [8]	TGI [9] [µM]	GI50 [7]
CC(=O)OC1(C#N)CC2OC1C1NC21 (configuration not stated)	> 100	> 100	> 100	> 100									
COC(=O)C(=O)C(C(=O)C(=O)Nc1nc(=S)[nH][nH]1)c1nc2ccc([N+](=O)[O-])cc2[nH]c1=O (configuration not stated)					> 100 µM	> 100 µM	> 100 µM	> 100 µM					
NC(=S)N=Nc1c(O)[nH]c2ccccc12					611 µM	258 µM		385 µM	168 µM	131 µM	158 µM		
CCC(=O)OCN1C(=O)C=CC1=O					40.9 µM and 39.7 µM	33.3 µM and 34.4 µM	31.4 µM	33.2 µM and 33.1 µM					
COc1ccc(CNC(=O)c2c(C)n([O-])c3cc(F)c(F)cc3[n+]2=O)cc1					19.3 µM	26.8 µM		25.5 µM	5.72 µM	13.8 µM	12.2 µM		
COc1cc2c3c(n(CCCN4CCN(CCO)CC4)c(=O)c2cc1OC)-c1cc2c(cc1C3=O)OCO2					17.5 µM	12.3 µM		18.3 µM	0.873 µM	2.35 µM	4.97 µM		
CC(C)CC1NC(=O)C(C(C)C)NC(=O)CC(C)COC(=O)C(CC(C)C)N(C)C(=O)C(C(C)C)NC(=O)C(C(C)C)OC1=O (configuration not stated)					> 50 µM	> 50 µM	> 50 µM	> 50 µM					
N#CC1C(=O)NC(=O)C(C#N)C1c1ccc(Cl)c(Cl)c1 (configuration not stated)					> 100 µM	> 100 µM		> 100 µM					
CC1SC(c2cccc(Cl)c2)N(NC(=O)C(O)c2ccccc2)C1=O (configuration not stated)					> 100 µM	> 100 µM		> 100 µM	> 100 µM	> 100 µM	> 100 µM		
N#CC(CC(=O)O)=C(c1ccccc1)c1ccccc1					> 100 µM	> 100 µM	> 100 µM	> 100 µM					
O=C(OCc1ccccc1)c1ccccc1-c1c2ccc(=O)cc-2oc2cc(OCc3ccccc3)ccc12			39.1	> 100								> 100	
COc1ccc(-c2cc(=O)c3cccnc3[nH]2)cc1					> 100 µM	> 100 µM	78.3 µM	> 100 µM					20.8 µM
C(=NCCN=Cc1cccc2ccccc12)c1cccc2ccccc12	> 100		> 100	> 100								> 100	
O=C1CC2OCC=C3CN4CCC56c7ccccc7N1C5C2C3CC46 (configuration not stated) (tested in a mixture with another compound)					> 50 µg/mL	> 50 µg/mL	> 50 µg/mL	> 50 µg/mL	> 50 µg/mL	> 50 µg/mL	> 50 µg/mL		> 50 µg/mL
CCCC(CCC)C(=O)O					> 20000 µM	> 20000 µM	> 100 µM	> 20000 µM	> 100 µM	> 100 µM	> 100 µM		
CCCCCCCCCCCCCCCC(N)c1ccccc1 (configuration not stated)					3.18 µM	3.11 µM		2.95 µM	1.62 µM	1.63 µM	1.35 µM		

Structure (SMILES)	TGI [1] [µM]	TGI [2] [µM]	TGI [3] [µM]	TGI [4] [µM]	TGI [5]	TGI [6]	TGI [7]	TGI [8]	GI50 [5]	GI50 [6]	GI50 [8]	TGI [9] [µM]	GI50 [7]
NC(N)=N/N=C/c1ccc(Br)cc1					11.7 µM	16.7 µM		14 µM	2.28 µM	5.64 µM	4.49 µM		
CC1=C(C(=O)NCc2ccccc2)C(c2ccccc2O)C(C(=O)NCc2ccccc2)=C(C)N1	35.7		36	37								31.2	
O=C(Nc1ccc(N2CCNCC2)cn1)c1[nH]ncc1Nc1ncnc2sc3c(c12)CCC3					4.2 µM	38.6 µM		3.28 µM	1.68 µM	14.1 µM	1.69 µM		
COC(=O)CCc1c(/C=C2\N=C(c3ccc[nH]3)C=C2OC)[nH]c(C)c1C(=O)OCc1ccccc1					4.78 µM	2.57 µM		1.57 µM	0.313 µM	0.335 µM	0.17 µM		
CC[C@@](C)(NC(=O)[C@H](C)NC(=O)CCNC(=O)C(C)(C)NC(=O)[C@H](C)NC(=O)[C@@H]1CCCN1C(=O)[C@@](C)(CC)NC(=O)[C@H](Cc1ccccc1)NC(=O)C1CCCN1C(=O)C(C)(C)NC(=O)C1CCCN1C(=O)C(C)(C)NC(C)=O)C(=O)NCCC(=O)N[C@@H](CC(C)C)C(=O)NC(C)(C)C(=O)NCCC(=O)N[C@@H](CC(C)C)C(=O)NC(C)(C)C(=O)NC(C)(C)C(=O)N[C@@H](CC(C)C)C(=O)NCCC(=O)NCO (some centres not stated) (Ac-[Aib][ξP][Aib][ξP]F[dIva]PA[Aib][βAla]A[dIva][βAla]L[Aib][βAla]L[Aib][Aib]L[βAla]-X5)					0.286 µM	0.266 µM			0.0651 µM	0.0699 µM			
NS(=O)(=O)c1ccc(N=Nc2c(=O)[nH]c3ccc4[nH]cccc4c23)cc1					> 25 µM	1.72 µM		> 7.89 µM	0.129 µM	0.498 µM	0.885 µM		
Nc1ncnc2c1ncn2C1OC(C(=O)OCCO)C(O)C1O (configuration not stated)					> 100 µM	> 100 µM	> 100 µM	> 100 µM					
CC(=O)Nc1ccc(OCC(O)CO)cc1 (configuration not stated)			54.1	> 100								> 100	
O=C1C=C(OCC=C(Cl)Cl)C(=O)c2ccccc21					3.81 µM	> 30.3 µM		17.7 µM	1.61 µM	4.94 µM	3.11 µM		
COn1cc(C(=O)N=C(SC)SC)c2ccccc21					> 100 µM	63.3 µM		51.3 µM	> 100 µM	19.2 µM	17.5 µM		
CC1CC2(C)CC(=O)C1C1C(=O)N(CCN3CCOCC3)C(=O)C12 (configuration not stated)						> 100 µM		> 100 µM		> 100 µM	> 100 µM		
CN/N=C(/CC(=O)c1sc(NNC(C)=O)nc1C)C(=O)Nc1ccc(OC)cc1OC	> 100		> 100	> 100								> 100	
CCN(CC)c1ccc(N=C2C=CC(=C(C#N)C#N)c3ccccc32)c(C)c1			6.5	6.75								6.51	
COC(=O)C1=C(O)C(C(=O)OC)[C@@]2(O)[C@@H](C(=O)OC)C(c3ccccc3Cl)C[C@@H]1[C@@H]2C(=O)OC (some centres not stated)					> 100 µM	33.8 µM		20.7 µM	5.24 µM	7.65 µM	6.56 µM		
ClCCCN1CCCCC1CCl (configuration not stated)	> 100		> 100	> 100								> 100	
